Experiments:
Type in all cases: functional
COLO 205 = experiment: Growth inhibition of human COLO205 cells incubated for 48 hrs by sulforhodamine B assay; conditions: COLO 205, 48 h
SF-295 = experiment: Growth inhibition of human SF295 cells incubated for 48 hrs by sulforhodamine B assay; conditions: SF-295, 48 h
SK-MEL-28 = experiment: Growth inhibition of human SK-MEL-28 cells incubated for 48 hrs by sulforhodamine B assay; conditions: SK-MEL-28, 48 h
DU-145 = experiment: Growth inhibition of human DU145 cells incubated for 48 hrs by sulforhodamine B assay; conditions: DU-145, 48 h
SK-OV-3 = experiment: Growth inhibition of human SKOV3 cells incubated for 48 hrs by sulforhodamine B assay; conditions: SK-OV-3, 48 h
BT-549 = experiment: Growth inhibition of human BT549 cells incubated for 48 hrs by sulforhodamine B assay; conditions: BT-549, 48 h
SR = experiment: Growth inhibition of human SR cells incubated for 48 hrs by sulforhodamine B assay
MDA-MB-231 = experiment: Growth inhibition of human MDA-MB-231 cells incubated for 48 hrs by sulforhodamine B assay; conditions: MDA-MB-231, 48 h
NCI-H226 = experiment: Growth inhibition of human NCI-H226 cells incubated for 48 hrs by sulforhodamine B assay; conditions: NCI-H226, 48 h
A498 = experiment: Growth inhibition of human A498 cells incubated for 48 hrs by sulforhodamine B assay; conditions: A498, 48 h
PC-3 = experiment: Growth inhibition of human PC3 cells incubated for 48 hrs by sulforhodamine B assay; conditions: PC-3, 48 h
CCRF-CEM = experiment: Growth inhibition of human CCRF-CEM cells incubated for 48 hrs by sulforhodamine B assay
HL-60(TB) = experiment: Growth inhibition of human HL-60(TB) cells incubated for 48 hrs by sulforhodamine B assay; conditions: HL-60, 48 h
MCF7 = experiment: Growth inhibition of human MCF7 cells incubated for 48 hrs by sulforhodamine B assay; conditions: MCF7, 48 h
HOP-62 = experiment: Growth inhibition of human HOP62 cells incubated for 48 hrs by sulforhodamine B assay; conditions: HOP-62, 48 h
SK-MEL-5 = experiment: Growth inhibition of human SK-MEL-5 cells incubated for 48 hrs by sulforhodamine B assay; conditions: SK-MEL-5, 48 h
NCI-H322M = experiment: Growth inhibition of human NCI-H322M cells incubated for 48 hrs by sulforhodamine B assay
M14 = experiment: Growth inhibition of human M14 cells incubated for 48 hrs by sulforhodamine B assay; conditions: M14, 48 h
786-0 = experiment: Growth inhibition of human 786-0 cells incubated for 48 hrs by sulforhodamine B assay; conditions: 786-0, 48 h
NCI-H23 = experiment: Growth inhibition of human NCI-H23 cells incubated for 48 hrs by sulforhodamine B assay; conditions: NCI-H23, 48 h
CAKI-1 = experiment: Growth inhibition of human Caki1 cells incubated for 48 hrs by sulforhodamine B assay; conditions: CAKI-1, 48 h
A549 = experiment: Growth inhibition of human A549/ATCC cells incubated for 48 hrs by sulforhodamine B assay; conditions: A549, 48 h
MOLT-4 = experiment: Growth inhibition of human MOLT4 cells incubated for 48 hrs by sulforhodamine B assay; conditions: MOLT-4, 48 h
SK-MEL-2 = experiment: Growth inhibition of human SK-MEL-2 cells incubated for 48 hrs by sulforhodamine B assay; conditions: SK-MEL-2, 48 h
MDA-MB-468 = experiment: Growth inhibition of human MDA-MB-468 cells incubated for 48 hrs by sulforhodamine B assay; conditions: MDA-MB-468, 48 h
OVCAR-3 = experiment: Growth inhibition of human OVCAR3 cells incubated for 48 hrs by sulforhodamine B assay; conditions: OVCAR-3, 48 h
HCT-15 = experiment: Growth inhibition of human HCT15 cells incubated for 48 hrs by sulforhodamine B assay; conditions: HCT-15, 48 h
OVCAR-8 = experiment: Growth inhibition of human OVCAR8 cells incubated for 48 hrs by sulforhodamine B assay; conditions: OVCAR-8, 48 h
HOP-92 = experiment: Growth inhibition of human HOP92 cells incubated for 48 hrs by sulforhodamine B assay; conditions: HOP-92, 48 h
MDA-MB-435 = experiment: Growth inhibition of human MDA-MB-435 cells incubated for 48 hrs by sulforhodamine B assay; conditions: MDA-MB-435, 48 h
ACHN = experiment: Growth inhibition of human ACHN cells incubated for 48 hrs by sulforhodamine B assay
HT-29 = experiment: Growth inhibition of human HT-29 cells incubated for 48 hrs by sulforhodamine B assay; conditions: HT-29, 48 h
RPMI-8226 = experiment: Growth inhibition of human RPMI8226 cells incubated for 48 hrs by sulforhodamine B assay; conditions: RPMI-8226, 48 h
KM12 = experiment: Growth inhibition of human KM12 cells incubated for 48 hrs by sulforhodamine B assay; conditions: KM12, 48 h
U-251 = experiment: Growth inhibition of human U251 cells incubated for 48 hrs by sulforhodamine B assay; conditions: U-251, 48 h
TK-10 = experiment: Growth inhibition of human TK10 cells incubated for 48 hrs by sulforhodamine B assay; conditions: TK-10, 48 h
HCC 2998 = experiment: Growth inhibition of human HCC2998 cells incubated for 48 hrs by sulforhodamine B assay; conditions: HCC 2998, 48 h
K562 = experiment: Growth inhibition of human K562 cells incubated for 48 hrs by sulforhodamine B assay; conditions: K562, 48 h
Malme-3M = experiment: Growth inhibition of human MALME-3M cells incubated for 48 hrs by sulforhodamine B assay
UO-31 = experiment: Growth inhibition of human UO31 cells incubated for 48 hrs by sulforhodamine B assay; conditions: UO-31, 48 h
SN12C = experiment: Growth inhibition of human SN12C cells incubated for 48 hrs by sulforhodamine B assay
NCI-H460 = experiment: Growth inhibition of human NCI-H460 cells incubated for 48 hrs by sulforhodamine B assay; conditions: NCI-H460, 48 h
HCT-116 = experiment: Growth inhibition of human HCT116 cells incubated for 48 hrs by sulforhodamine B assay; conditions: HCT-116, 48 h
NCI/ADR-RES = experiment: Growth inhibition of human NCI/ADR-RES cells incubated for 48 hrs by sulforhodamine B assay
SF-539 = experiment: Growth inhibition of human SF539 cells incubated for 48 hrs by sulforhodamine B assay; conditions: SF-539, 48 h
IGROV-1 = experiment: Growth inhibition of human IGROV1 cells incubated for 48 hrs by sulforhodamine B assay; conditions: IGROV-1, 48 h
SW-620 = experiment: Growth inhibition of human SW620 cells incubated for 48 hrs by sulforhodamine B assay; conditions: SW-620, 48 h
SNB-19 = experiment: Growth inhibition of human SNB19 cells incubated for 48 hrs by sulforhodamine B assay; conditions: SNB-19, 48 h
OVCAR-5 = experiment: Growth inhibition of human OVCAR5 cells incubated for 48 hrs by sulforhodamine B assay; conditions: OVCAR-5, 48 h
NCI-H522 = experiment: Growth inhibition of human NCI-H522 cells incubated for 48 hrs by sulforhodamine B assay; conditions: NCI-H522, 48 h
UACC-62 = experiment: Growth inhibition of human UACC62 cells incubated for 48 hrs by sulforhodamine B assay; conditions: UACC-62, 48 h
LOX IMVI = experiment: Growth inhibition of human LOXIMVI cells incubated for 48 hrs by sulforhodamine B assay
SF-268 = experiment: Growth inhibition of human SF268 cells incubated for 48 hrs by sulforhodamine B assay; conditions: SF-268, 48 h
OVCAR-4 = experiment: Growth inhibition of human OVCAR4 cells incubated for 48 hrs by sulforhodamine B assay; conditions: OVCAR-4, 48 h
Hs-578T = experiment: Growth inhibition of human Hs578T cells incubated for 48 hrs by sulforhodamine B assay
RXF 393 = experiment: Growth inhibition of human RXF393 cells incubated for 48 hrs by sulforhodamine B assay; conditions: RXF 393, 48 h
EKVX = experiment: Growth inhibition of human EKVX cells incubated for 48 hrs by sulforhodamine B assay
SNB-75 = experiment: Growth inhibition of human SNB75 cells incubated for 48 hrs by sulforhodamine B assay; conditions: SNB-75, 48 h

Compound `CC(=O)O[C@H]1C(=O)[C@@]2(C)[C@H]([C@H](OC(=O)c3ccccc3)[C@]3(O)C[C@H](OC(=O)[C@H](O)[C@@H](NC(=O)c4ccccc4)c4ccccc4)C(C)=C1C3(C)C)[C@]1(OC(C)=O)CO[C@@H]1C[C@@H]2O` [PACLITAXEL] has a GI50 (COLO 205) of 7.9 nM, a GI50 (SF-295) of 25 nM and a GI50 (SK-MEL-28) of 400 nM. The GI50 (DU-145) was 6.3 nM, the GI50 (SK-OV-3) was 6.3 nM and the GI50 (BT-549) was 4 nM. The GI50 (SR) was 6.3 nM, the GI50 (MDA-MB-231) was 12.5 nM and the GI50 (NCI-H226) was 3.9 nM. For the same compound, the GI50 (A498) was 7.9 nM, the GI50 (PC-3) was 6.3 nM and the GI50 (CCRF-CEM) was 5 nM. For the same compound, the GI50 (HL-60(TB)) was 4 nM, the GI50 (MCF7) was 4 nM and the GI50 (HOP-62) was 19 nM. The GI50 (SK-MEL-5) was 5 nM, the GI50 (NCI-H322M) was 12.5 nM and the GI50 (M14) was 5 nM. The GI50 (786-0) was 39 nM, the GI50 (NCI-H23) was 6.3 nM and the GI50 (CAKI-1) was 158 nM. The GI50 (A549) was 6.3 nM, the GI50 (MOLT-4) was 5 nM and the GI50 (SK-MEL-2) was 400 nM. The GI50 (MDA-MB-468) was 12.5 nM, the GI50 (OVCAR-3) was 4 nM and the GI50 (HCT-15) was 125 nM. It also gave a GI50 (OVCAR-8) of 7.9 nM, a GI50 (HOP-92) of 25 nM and a GI50 (MDA-MB-435) of 4 nM. For the same compound, the GI50 (ACHN) was 158 nM, the GI50 (HT-29) was 5 nM and the GI50 (RPMI-8226) was 19.9 nM. The GI50 (KM12) was 5 nM, the GI50 (U-251) was 6.3 nM and the GI50 (TK-10) was 19.9 nM. The GI50 (HCC 2998) was 1 nM, the GI50 (K562) was 6.3 nM and the GI50 (Malme-3M) was 50 nM. For the same compound, the GI50 (UO-31) was 125 nM, the GI50 (SN12C) was 6.3 nM and the GI50 (NCI-H460) was 6.3 nM. The GI50 (HCT-116) was 4 nM, the GI50 (NCI/ADR-RES) was 630 nM and the GI50 (SF-539) was 5 nM. It also gave a GI50 (IGROV-1) of 6.3 nM, a GI50 (SW-620) of 4 nM and a GI50 (SNB-19) of 10 nM. For the same compound, the GI50 (OVCAR-5) was 7.9 nM, the GI50 (NCI-H522) was 15.8 nM and the GI50 (UACC-62) was 5 nM. The GI50 (LOX IMVI) was 5 nM, the GI50 (SF-268) was 5 nM and the GI50 (OVCAR-4) was 630 nM. For the same compound, the GI50 (Hs-578T) was 5 nM, the GI50 (RXF 393) was 15.8 nM and the GI50 (EKVX) was 79 nM. It also gave a GI50 (SNB-75) of 7.9 nM.

Source: ChEMBL document CHEMBL4219224, “Structure based drug design and in vitro metabolism study: Discovery of N-(4-methylthiophenyl)-N,2-dimethyl-cyclopenta[d]pyrimidine as a potent microtubule targeting agent” (Bioorg Med Chem, 2018)
